According to the supplement of paper PMC3493320:

Tested on: NCI-H295R
Test: IC50 (antiproliferative, ATP content)
Conditions: 48 h
Outline: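 Compounds were pin-transferred at 8 final concentrations between 0.6 nM and 46 µM onto adrenocortical carcinoma cells (1500 per well, 1536-well plates) that had been cultured overnight in serum-free DMEM with ITS. Plates then stood 48 h at 37 °C, 5% CO2, and ATP was detected by CellTiter-Glo luminescence. IC50 was derived from logistic fits of normalised signal, and compounds giving no concentration response were noted as above the top dose.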

IC50 [µM]	Compound
> 46	CN1CCN2c3ncccc3Cc3ccccc3C2C1 (stereo not drawn)
> 46	CCc1ccc(CCOc2ccc(CC3SC(=O)NC3=O)cc2)nc1.Cl (stereo not drawn)
> 46	CCC1Nc2cc(Cl)c(S(N)(=O)=O)cc2S(=O)(=O)N1 (stereo not drawn)
> 46	O=C([O-])[C@H](O)[C@@H](O)[C@H](O)[C@H](O)CO.[Na+]
> 46	CC1(C)S[C@@H]2[C@H](NC(=O)C3(N)CCCCC3)C(=O)N2[C@H]1C(=O)O
> 46	O=C(CCCN1CCC(O)(c2ccc(Br)cc2)CC1)c1ccc(F)cc1
> 46	CC(=O)Oc1c(C)c(C)c2c(c1C)CCC(C)(CCCC(C)CCCC(C)CCCC(C)C)O2 (stereo not drawn)
> 46	Cc1ncc[nH]1
> 46	CCOc1ccc(C(=O)OCCN(CC)CC)cc1
> 46	CCCOC(C(=O)OC1CCN(C)CC1)(c1ccccc1)c1ccccc1.Cl
> 46	Oc1ncnc2[nH]ncc12
> 46	O=S(=O)(O)NC1CCCCC1
> 46	OS(C1=C(C(C)C)C=C3C([C@@]2(C)CCC[C@]([C@@](O)=O)(C)[C@@]([H])2CC3)=C1)(=O)=O
> 46	C[C@@H]1CC[C@@]2(OC1)O[C@H]1C[C@H]3[C@@H]4CC[C@H]5C[C@@H](O)CC[C@]5(C)[C@H]4CC(=O)[C@]3(C)[C@H]1[C@@H]2C
> 46	c1cnc(N2CCN(Cc3ccc4c(c3)OCO4)CC2)nc1
> 46	CCCN(CCC)CCc1cccc2c1CC(=O)N2
> 46	CN(C)C(=O)Nc1ccc(Cl)c(Cl)c1
> 46	OCC(O)CO
> 46	COc1cc2nc(N(C)CCCNC(=O)C3CCCO3)nc(N)c2cc1OC.Cl (stereo not drawn)

IC50 [µM]	Compound
> 46	O=C(O)CN(CCN(CC(=O)O)CC(=O)O)CCN(CC(=O)O)CC(=O)O
> 46	O=c1oc2cc(O)ccc2s1
> 46	CN(C/C=C/c1ccccc1)Cc1cccc2ccccc12.Cl
> 46	COc1ccc2[nH]c(S(=O)Cc3ncc(C)c(OC)c3C)nc2n1 (stereo not drawn)
> 46	CC(CCc1ccc(O)cc1)NCC(O)c1ccc(O)cc1.Cl (stereo not drawn)
> 46	O=C(NNCS(=O)(=O)[O-])c1ccncc1.[Na+]
> 46	O=P(O)(O)CP(=O)(O)O
> 46	CS(=O)(=O)c1ccc(C2=C(c3ccccc3)C(=O)OC2)cc1
> 46	CCN1CCN(C(=O)N[C@@H](C(=O)N[C@@H]2C(=O)N3C(C(=O)[O-])=C(CSc4nnnn4C)CS[C@H]23)c2ccc(O)cc2)C(=O)C1=O.[Na+]
> 46	N[C@@H](Cc1ccc(O)cc1)C(=O)O
> 46	CCCCc1cc2ccccc2c(OCCN(C)C)n1.Cl
> 46	CN(C)C/C=C(/c1ccc(Br)cc1)c1cccnc1.Cl.Cl.O
> 46	CN1CCN(C2=Nc3ccccc3Sc3ccc(Cl)cc32)CC1
> 46	Cc1cccc(C)c1NC(=O)C(C)N.Cl (stereo not drawn)
> 46	O=C(O)CCCCC(=O)O
> 46	CCN(CC)C(=O)Nc1ccc(OCC(O)CNC(C)(C)C)c(C(C)=O)c1.Cl (stereo not drawn)
> 46	C[C@]12CC[C@@H]3c4ccc(O)cc4CC[C@H]3[C@@H]1C[C@@H](O)[C@H]2O
> 46	O=C([O-])Cc1ccccc1Nc1c(Cl)cccc1Cl.[Na+]
> 46	CCOC(=O)c1cnc2cc(OCC(C)C)c(OCC(C)C)cc2c1O

IC50 [µM]	Compound
> 46	CCCCCCCCCCC(CO)CCCCCCCC (stereo not drawn)
> 46	O=C(O)CCCC/C=C(\c1ccccc1)c1cccnc1
> 46	O=C(O)Cc1ccc(-c2ccccc2)cc1
> 46	Cn1c(=O)c2c(ncn2CCOC(=O)C(C)(C)Oc2ccc(Cl)cc2)n(C)c1=O
> 46	CCCOc1cc(N)ccc1C(=O)OCCN(CC)CC.Cl
> 46	CC(C)Cc1ccc([C@@H](C)C(=O)NS(C)(=O)=O)cc1
> 46	CS(=O)(=O)c1ccc([C@@H](O)[C@@H](CF)NC(=O)C(Cl)Cl)cc1
> 46	NC1=NC=NC2=C1N=CN2[C@@H]3O[C@H](COP(OP(OC[C@H]4O[C@@H]([N@@+]5=CC=CC(C(N)=O)=C5)[C@H](O)[C@@H]4O)([O-])=O)(O)=O)[C@@H](O)[C@H]3O
> 46	CCCCCC(N)=O
> 46	COc1ccc(S(=O)(=O)N2c3ccc(Cl)cc3[C@@](O)(c3ccccc3Cl)[C@H]2C(=O)N2CCC[C@@H]2C(N)=O)cc1OC
> 46	CC(=O)NCCCCCC(=O)O
> 46	COc1c(N2CCNC(C)C2)c(F)cc2c(=O)c(C(=O)O)cn(C3CC3)c12 (stereo not drawn)
> 46	C(=Cc1ccccc1)CN1CCN(C(c2ccccc2)c2ccccc2)CC1
> 46	Cn1c(=O)c2c(ncn2CC2OCCO2)n(C)c1=O
> 46	CN1[C@@H]2CC[C@H]1C[C@@H](OC(c1ccccc1)c1ccccc1)C2
> 46	C[C@@H](O)[C@H](N)C(=O)O
> 46	CCN1CCCC(OC(=O)C(c2ccccc2)c2ccccc2)C1.Cl (stereo not drawn)
> 46	ClC3=C(C=CC5=C3)OC1=CC([C@@](C(N[C@@](C8=CC%11=C(O)C=C8)([H])C(N[C@H]([C@](N[C@@H]([C@@](O)=O)C%12=C%11C(O[C@H]%13O[C@H](CO)[C@@H](O)[C@H](O)[C@@H]%13O)=CC(O)=C%12)=O)[C@@H]5O[C@@]6([H])[C@H](NC(C)=O)[C@@H](O)[C@H](O)[C@@H](CO)O6)=O)=O)([H])NC([C@@](C9=CC(O)=CC(OC%10=C(O)C=CC([C@@H]%14N)=C%10)=C9)([H])NC([C@H](NC%14=O)C7)=O)=O)=CC(OC4=CC=C7C=C4Cl)=C1O[C@H]2[C@H](NC(CC\C=C/CCCCC)=O)[C@@H](O)[C@H](O)[C@@H](CO)O2

Compound	IC50 [µM]
CO/N=C1\CN(c2nc3c(cc2F)c(=O)c(C(=O)O)cn3C2CC2)CC1CN.CS(=O)(=O)O (stereo not drawn)	> 46
COP(=S)(OC)SCN1C(=O)c2ccccc2C1=O	> 46
[H][C@]1(CC3)C[C@@H](OC(C(C5=CC=CC=C5)(O)C4=CC=CC=C4)=O)C[C@]3([H])[N@+]21CCCC2.[Cl-]	> 46
O=C1CCCCC1CN1CCCCC1 (stereo not drawn)	> 46
NCCc1ccc(O)cc1	> 46
O[C@@H]3C\C4=C\C[C@@H]2[C@H](CC[C@]1(C)C(=O)CC[C@H]12)[C@@]4(C)CC3	> 46
Oc1ccc(Cl)cc1	> 46
CCCCCN(C)CCC(O)(P(=O)([O-])O)P(=O)(O)O.[Na+]	> 46
C1CCC(NC2CCCCC2)CC1	> 46
OC(c1ccccc1)(c1ccccc1)C1CCNCC1	> 46
CC[n+]1c(-c2ccccc2)c2cc(N)ccc2c2ccc(N)cc21.[Br-]	> 46
O=C1C[N+]([O-])=C(c2ccccc2)c2cc(Cl)ccc2N1	> 46
O=[N+]([O-])c1ccc(F)c([N+](=O)[O-])c1	> 46
COc1ccc(C[C@@H](C)NC[C@H](O)c2ccc(O)c(NC=O)c2)cc1.COc1ccc(C[C@@H](C)NC[C@H](O)c2ccc(O)c(NC=O)c2)cc1.O=C(O)/C=C/C(=O)O	> 46
O=c1n(Cl)c(=O)n(Cl)c(=O)n1Cl	> 46
Cc1ccc(S(=O)(=O)N[C@H](CCCCN)C(=O)CCl)cc1.Cl	> 46
C[C@@H](Cc1ccccc1)NCCC(c1ccccc1)c1ccccc1.C[C@H](O)C(=O)O	> 46
